The term IC50 denotes the concentration that inhibits the measured activity by half. A word on the EC50: it is the midpoint of the concentration-response curve. A word on the viability: it is a per cent measure of how many cells are alive, often set against a control.

The target in one assay is yeast α-glucosidase. Kind of assay: α-Glucosidase inhibition assay (pNPG substrate).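 Further: enzyme and compounds preincubated 5 min at 37 °C, then pNPG hydrolysis run 30 min at 37 °C in phosphate buffer pH 6.8, compared against 1% DMSO blank.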 The class given is biochemical.
In assay [1] the test system is intracellular ROS in MIN6 cells damaged by H2O2. Kind of assay: Intracellular ROS (DCFH-DA fluorescence) in H2O2-damaged MIN6 cells. Format: cell-based, Mouse. The conditions noted are these: 100 μM for 4 h, then 200 μM H2O2 for 12 h. From the text: Oxidative stress response is often accompanied by the production of a large number of reactive oxygen species (ROS). H2O2 induces ROS production imbalance and destroys MIN6 cells, resulting in oxidative stress damage. Dichloro-fluorescein-diacetate (DCFH-DA) fluorescence probe was used to detect the level of intracellular ROS in MIN6 cells damaged by H2O2 and investigate whether compound 2 plays a protective role by inhibiting ROS production. Nonfluorescent DCFH-DA dye can freely enter the cell membrane and hydrolyze to form DCFHs by intracellular esterase. In the presence of ROS, DCFHs were rapidly oxidized to form highly fluorescent DCFs. The fluorescence intensity of DCFs is assumed to be parallel to the amount of ROS formed in cells. The fluorescence intensity of DCFs in the H2O2-damaged group was considerably higher than in the control group.
Figure 5 Compound 2 reduced the amount of intracellular reactive oxygen species (ROS). Cells were treated with 100 μM of compound 2 for 4 h, then exposed to 200 μM H2O2 for 12 h. Cells were stained with dichloro-fluorescein-diacetate (DCFH-DA). The DCF fluorescence intensity was measured by fluorescence microscope.
The amount of intracellular ROS was measured by the fluorescence probe-2′,7′-dichloro-fluorescein-diacetate (DCFH-DA) purchased from Sigma. […] Then, the fluorescence intensity was measured under a fluorescence microscope.

The subject of assay [2] is Nrf2/HO-1 pathway in MIN6 cells. Description: Western blot of Nrf2 and HO-1 expression in MIN6 cells. The class given is cell-based, Mouse. The conditions noted are these: 60 and 100 μM. On the procedure:
Nrf2 is a stress-response transcriptional activator that protects cells from oxidative damage. Under oxidative stress, Nrf2 was transferred into the nucleus to induce the expression of HO-1 [21]. Thus, the effects of compound 2 on the expression levels of Nrf2 and HO-1 were tested.
Figure 6 Effects of compound 2 on the expression of Nrf2 and HO-1 in MIN6 cells. (A) Expression levels of Nrf2-mediated antioxidant proteins were detected by Western blot analysis in 16 h. (B,C) Quantification of Nrf2 and HO-1 protein expression. Data are presented as means ± SDs of three independent experiments. ^& p < 0.05, ^&& p < 0.01 compared with control group (untreated with H2O2 and compound 2). ^## p < 0.01, ^### p < 0.001 compared with model group (only treated with H2O2). (D) Expression levels of Nrf2-mediated antioxidant proteins after the cells were incubated with 100 μM of compound 2 for the indicated time period. (E,F) Quantification of Nrf2 and HO-1 protein expression. Data are presented as means ± SDs of three independent experiments. ** p < 0.01, *** p < 0.001 compared with control group.
We used RIPA lysis buffer to extract total cellular proteins, and the protein concentration was measured by bicinchoninic acid. SDS-PAGE was conducted in 10% gel, and the protein load in each lane was equal. […]
(In general: A western blot detects proteins with antibodies after separation by electrophoresis.)

The target in assay [3] is T1, PTP1B (human, recombinant) (Homo sapiens, UniProt P18031).
T1 construct: purchased Sigma-Aldrich (St. Louis, MO, USA)
T1 sequence (P18031 1-435): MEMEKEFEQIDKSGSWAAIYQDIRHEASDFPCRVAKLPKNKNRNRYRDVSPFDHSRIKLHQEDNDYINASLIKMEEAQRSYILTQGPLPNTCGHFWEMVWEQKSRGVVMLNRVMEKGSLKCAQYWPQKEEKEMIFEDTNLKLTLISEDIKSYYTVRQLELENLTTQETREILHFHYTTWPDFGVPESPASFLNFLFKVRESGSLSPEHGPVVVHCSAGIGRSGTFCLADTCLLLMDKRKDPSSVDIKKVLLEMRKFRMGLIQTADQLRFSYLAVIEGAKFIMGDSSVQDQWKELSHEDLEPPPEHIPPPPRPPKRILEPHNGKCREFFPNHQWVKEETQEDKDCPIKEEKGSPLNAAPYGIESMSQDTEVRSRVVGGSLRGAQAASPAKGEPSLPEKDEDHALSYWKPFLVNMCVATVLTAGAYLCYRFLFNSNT
Kind of assay: PTP1B inhibition assay (pNPP substrate). The class given is biochemical. Conditions: read-out: PTP1B IC50.
Method: (§1) PTP1B (human, recombinant), yeast α-glucosidase, dithiothreitol (DTT), p-nitrophenyl phosphate (pNPP), p-nitrophenyl-α-D-glucopyranoside (pNPG), and β-mercaptoethanol were purchased from Sigma-Aldrich (St. Louis, MO, USA).
Exactly 83 µL of the enzyme in buffer (pH 7.5) consisting of 2 mM β-mercaptoethanol, 25 mM Tris-HCl, 1 mM DTT, 1 mM EDTA, and 10 µL of different concentrations of compounds were incubated in a 96-well plate at 37 °C for 10 min. Subsequently, the enzyme was incubated with the substrate pNPP (4 µL, 10 mM) in a buffer at 37 °C for 30 min, and NaOH (5 µL, 2 mol/L) was added to stop the reaction. In the blank control group, 1% DMSO (10 µL) was added to replace the sample solution.

In assay [4] the test system is SOD, CAT, and GSH in MIN6 cells damaged by H2O2. Kind of assay: SOD, CAT and GSH determination in H2O2-damaged MIN6 cells. Format: cell-based, Mouse. The conditions noted are these: various concentrations for 4 h, then 200 μM H2O2 for 12 h. On the procedure: Superoxide dismutase (SOD) and catalase (CAT) are antioxidant enzymes that play important roles in preventing oxidative injury. Glutathione (GSH) is a major tissue antioxidant maintained in reduced form by glutathione reductase, and it provides reducing equivalents for glutathione peroxidase catalyzing reduction. The activities of SOD, CAT, and GSH in MIN6 cells damaged by H2O2 were measured to evaluate the effects of compound 2 on antioxidant defense systems.
Figure 4 Compound 2 restored superoxide dismutase (SOD) and catalase (CAT) activities and glutathione (GSH) level in MIN6 cells damaged by H2O2. Cells were treated with various concentrations of compound 2 for 4 h, then exposed to 200 μM H2O2 for 12 h. SOD, CAT, and GSH were measured with microplate. Data are presented as means ± SDs of three independent experiments. * p < 0.05, ** p < 0.01, *** p < 0.001 compared with com.2 (0 μM) in 200 μM H2O2.
CAT and SOD as antioxidant enzymes and nonenzymatic antioxidant (GSH) in pancreatic cells were determined using commercial kits in accordance with their guidelines. The absorbance of each well was measured by a microplate reader (iMark, Bio-Rad, Hercules, CA, USA).

Assay [5] deals with MIN6 cells damaged by H2O2. Description: Protective effect on H2O2-damaged MIN6 cells (MTT cell viability).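 Further: mouse pancreatic beta cell line MIN6, viability read as MTT absorbance at 490 nm.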 Format: cell-based, Mouse. Conditions: Mus musculus, then 200 μM H2O2 for 12 h.
Method: Cell viability was measured by the MTT method.
Mouse normal pancreatic beta cell line MIN6 was obtained from Beijing Dingguo Biotechnology Co., Ltd. (Beijing, China). […] Cell viability was measured using the MTT assay. Cells (6 × 10^4 per mL) were cultured in a 96-well (100 μL per well) microplate at 37 °C in humidified 5% CO2 for 24 h. Cells were also treated with various concentrations of compounds for 4 h and then exposed to 200 μM H2O2 for 12 h. The absorptions were measured at 490 nm with a microplate reader (iMark, Bio-Rad, Hercules, CA, USA).

Structures are written as SMILES.

Method for yeast α-glucosidase: as §1
A slightly modified and developed method of the α-glucosidase assay was used [23]. α-Glycosidase solution (30 µL, in 0.1 mol/L potassium phosphate buffer, 2 units/mL, pH 6.8) was mixed with different concentrations of compounds (20 µL, in 1% DMSO) and incubated at 37 °C for 5 min. Then, pNPG (150 µL, 10 mM) and potassium phosphate buffer (800 µL, 0.1 M) were added to the solution. After 30 min of incubation at 37 °C, the reaction was stopped by adding Na2CO3 (2 mL, 1 M). In the blank control group, 1% DMSO (20 μL) was added instead of the sample solution. The absorbance of the released product (p-nitrophenol) was obtained at 405 nm with a microplate reader.

As for `O=C(OC1C(Oc2c(-c3ccc(O)c(O)c3)oc3cc(O)cc(O)c3c2=O)OC(CO)C(O)C1O)c1cc(O)c(O)c(O)c1` (stereo not drawn) [Compound 2, quercetin-3-O-(2″-O-galloyl)-β-galactopyranoside], the IC50 against yeast α-glucosidase is 8.59 ± 1.52 µM; in assay [3], 5.56 ± 0.38 µM. Besides, in assay [1], the “Intracellular ROS (DCF fluorescence intensity)” value is “eliminated intracellular ROS”. In addition, in assay [2], the “Expression of Nrf2 and HO-1” value was “substantially increase”. In assay [4], the “Activities of SOD, CAT and GSH compared with H2O2-damaged group” value was “markedly increased”. The concentration for a half-maximal effect (EC50) in assay [5] (MIN6, 4 h pretreatment, read-out: EC50 of protective effect on H2O2-induced MIN6 cells) is 73.09 ± 0.56 µM. The viability at 100 µM in assay [5] (compounds 100 μM, 4 h, MIN6 cells, read-out: Cell Viability % of Control) amounted to 81.5 ± 2.66%.
